Read-outs that look alike come from different tables or passages of the source.
Tests used:
[1] = target: T1, cloned recombinant human HDAC-1 (Homo sapiens, UniProt Q13547); test: Human HDAC-1 enzyme inhibition, Assay 1 ([3H]-acetylated histone substrate, scintillation counting); type: biochemical
T1 construct: made in house; host or cells: Baculovirus insect cell expression system
Outline: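 Recombinant human HDAC-1 from baculovirus-infected insect cells, preincubated with compound 30 min at 4° C. before reaction. Released [3H]-acetic acid extracted with ethyl acetate and counted by scintillation. IC50 taken from dose-response curves as concentration giving half-maximal inhibition.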

[2] = test system: acetylated histone H-4 in T24 human bladder cancer cells; test: Histone H4 acetylation in whole cells by immunoblots; type: cell-based; settings: 16 h
Protocol: T24 human bladder cancer cells growing in culture were incubated with HDAC inhibitors for 16 h. […] of total histone protein was loaded onto SDS/PAGE and transferred to nitrocellulose membranes. Membranes were probed with polyclonal antibodies specific for acetylated histone H-4 (Upstate Biotech Inc.), followed by horse radish peroxidase conjugated secondary antibodies (Sigma). Enhanced Chemiluminescence (ECL) (Amersham) detection was performed using Kodak films (Eastman Kodak). Acetylated H-4 signal was quantified by densitometry.

HCT116 cells = test: MTT assay; type: cell-based; settings: Homo sapiens, HCT116 cells, 72 hours
Outline: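 Cells plated one day before dosing, then exposed to compound 72 h at 37 °C, 5% CO2. MTT at 0.5 mg/ml final for 4 h, solubilized in DMF/SDS buffer pH 4.7; OD converted to cell number from a standard growth curve.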

[3] = Table 5F, read-out: Human HDAC-1 IC50
[4] = T-24, Table 5F, read-out: H4 Ac (T24) EC50

T1 sequence (Q13547 whole entry): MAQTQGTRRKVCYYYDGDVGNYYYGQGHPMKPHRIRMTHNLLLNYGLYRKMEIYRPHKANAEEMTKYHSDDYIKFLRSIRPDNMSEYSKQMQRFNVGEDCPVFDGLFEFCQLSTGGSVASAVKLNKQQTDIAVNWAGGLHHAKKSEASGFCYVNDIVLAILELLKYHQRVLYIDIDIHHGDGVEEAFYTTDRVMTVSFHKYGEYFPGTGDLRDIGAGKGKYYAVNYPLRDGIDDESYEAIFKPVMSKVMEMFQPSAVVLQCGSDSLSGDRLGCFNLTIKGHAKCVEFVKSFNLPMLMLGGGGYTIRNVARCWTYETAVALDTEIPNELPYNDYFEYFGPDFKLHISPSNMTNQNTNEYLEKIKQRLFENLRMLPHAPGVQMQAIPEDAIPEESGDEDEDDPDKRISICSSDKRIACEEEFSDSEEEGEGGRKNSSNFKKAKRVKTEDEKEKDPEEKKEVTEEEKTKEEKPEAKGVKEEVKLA

| SMILES | IC50 [1, 3] | EC50 [2, 4] | IC50 (HCT116 cells; HCT-116, 72 h, Table 5F) | also measured |
| --- | --- | --- | --- | --- |
| Nc1ccccc1NC(=O)c1ccc(CNc2nc3cc(Cl)ccc3o2)cc1 [Cpd 320, N-(2-Amino-phenyl)-4-[(5-chloro-benzooxazol-2-ylamino)-methyl]-benzamide] | 2 µM | 1 µM | – | – |
| COc1ccc(NCc2ccc(C(=O)Nc3cscc3N)cc2)cc1OC [424c, N-(4-Aminothiophen-3-yl)-4-[(3,4-dimethoxyphenylamino)-methyl]-benzamide] | 3 µM | 3 µM | 0.8 µM | – |
| Cc1onc2c1c(=O)n(Cc1ccc(C(=O)Nc3ccccc3N)cc1)c1cccc(Cl)c21 [Cpd 247] | 3 µM | 2 µM | 0.6 µM | – |
| COc1cc(NCc2ccc(C(=O)Nc3cscc3N)cc2)cc(OC)c1OC [Cpd 574, N-(4-Amino-thiophen-3-yl)-4-[(3,4,5-trimethoxy-phenylamino)-methyl]-benzamide] | 13 µM | 3 µM | 0.7 µM | – |
| COc1cc(NCc2ccc(C(=O)Nc3ccccc3N)cc2)ncn1 [Cpd 385] | 3 µM | 2 µM | 1 µM | – |
| Nc1ccccc1NC(=O)c1ccc(CNc2nc(Cl)cc(Cl)n2)cc1 [Cpd 419, N-(2-Amino-phenyl)-4-[(4,6-dichloro-pyrimidin-2-ylamino)-methyl]-benzamide] | 2 µM | 5 µM | 1 µM | – |
| Nc1ccccc1NC(=O)c1ccc(CNc2nc3cc(Br)ccc3s2)cc1 [Cpd 322, N-(2-Amino-phenyl)-4-[(5-bromo-benzothiazol-2-ylamino)-methyl]-benzamide] | 0.7 µM | 2 µM | 0.4 µM | – |
| COc1cc(NCc2ccc(C(=O)Nc3ccccc3N)cc2)nc(OC)n1 [Cpd 392, N-(2-Amino-phenyl)-4-[(2,6-dimethoxy-pyrimidin-4-ylamino)-methyl]-benzamide] | 4 µM | 1 µM | 1 µM | – |
| Nc1ccccc1NC(=O)/C=C/c1ccc(NCc2cccc(OCC(F)(F)F)c2)nc1 [Cpd 525, N-(2-Amino-phenyl)-3-{6-[3-(2,2,2-trifluoro-ethoxy)-benzylamino]-pyridin-3-yl}-acrylamide] | – | – | – | IC50 ([1]; Table 5d, read-out: HDAC-1 IC50): 3 µM; IC50 (HCT116 cells; HCT-116, Table 5d): 4 µM; EC50 ([2]; T-24, Table 5d, read-out: H4Ac(T24) EC50): 5 µM |
| COc1ccc(CSc2ccc(C(=O)Nc3ccccc3N)cn2)cc1 [Cpd 171] | – | – | – | IC50 ([1]; Table 5E, read-out: Human HDAC-1 IC50): 8 µM; IC50 (HCT116 cells; HCT-116, 72 h, Table 5E): 3 µM; EC50 ([2]; T-24, Table 5E, read-out: H4 Ac (T24) EC50): 25 µM |
| Nc1ccccc1NC(=O)c1ccc(CNc2nc3ccccc3[nH]2)cc1 [Cpd 389] | 3 µM | 1 µM | 0.2 µM | – |
| CCn1c(=O)n(Cc2ccc(C(=O)Nc3ccccc3N)cc2)c(=O)c2ccccc21 [Cpd 181] | 0.5 µM | 1 µM | 0.4 µM | – |
| Nc1ccccc1NC(=O)c1ccc(CNc2nc(NCc3ccccc3)nc(NC3Cc4ccccc4C3)n2)cc1 [Cpd 25] | – | – | – | IC50 ([1]; Table 5a, read-out: Human HDAC-1 IC50): 0.8 µM; IC50 (HCT116 cells; HCT-116, 72 h, Table 5a): 0.3 µM; EC50 ([2]; T-24, Table 5a, read-out: H4Ac (T24) EC50): 5 µM |
| Cc1cc(C)nc(SCc2ccc(C(=O)Nc3ccccc3N)cc2)n1 [Cpd 378, N-(2-Amino-phenyl)-4-(4,6-dimethyl-pyrimidin-2-ylsulfanylmethyl)-benzamide] | 2 µM | 2 µM | 0.7 µM | – |
| Nc1ccccc1NC(=O)c1ccc(CC2Cc3ccccc3C2O)cc1 (centres unmarked) [compound 275, N-(2-Amino-phenyl)-4-(1-hydroxy-indan-2-ylmethyl)-benzamide] | 4 µM | 2 µM | 0.9 µM | – |
| COc1ccc(NCc2ccc(/C=C/C(=O)Nc3ccccc3N)cc2)cn1 [Cpd 109, N-(2-Amino-phenyl)-3-{4-[(6-methoxy-pyridin-3-ylamino)-methyl]-phenyl}-acrylamide] | – | – | – | IC50 ([1]; Table 5c, read-out: Human HDAC-1 IC50): 5 µM; IC50 (HCT116 cells; HCT-116, 72 h, Table 5c): 8 µM; EC50 ([2]; T-24, Table 5c, read-out: H4Ac (T24) EC50): 15 µM |
| COc1cc(-c2ccc3sc(NCc4ccc(C(=O)Nc5ccccc5N)cc4)nc3c2)cc(OC)c1OC [Cpd 231] | 4 µM | 3 µM | – | – |
| Nc1nc(Nc2ccc(C(=O)Nc3ccccc3N)cc2)nc(NC2Cc3ccccc3C2)n1 [Cpd 204] | – | – | – | IC50 ([1]; Table 5b, read-out: Human HDAC-1 IC50): 4 µM; EC50 ([2]; T-24, Table 5b, read-out: H4Ac (T24) EC50): 5 µM |
| COc1ccc(-c2ccnc(NCc3ccc(C(=O)Nc4ccccc4N)cc3)n2)cn1 [Cpd 578, N-(2-Amino-phenyl)-4-{[4-(6-methoxy-pyridin-3-yl)-pyrimidin-2-ylamino]-methyl}-benzamide] | – | 1 µM | 0.1 µM | – |

— patent publication US7868204B2, “Inhibitors of histone deacetylase” (MethylGene Inc., priority 2001, dated 2011)
